The text below walks through data of patent publication US7868006B2, “Heterocyclic substituted piperazines with CXCR3 antagonist activity” (Schering Corporation, priority 2005, dated 2011).

Structures are written as SMILES.

The target of this experiment is T1, human CXCR3 (N-delta 4) (Homo sapiens, UniProt P49682).
T1 construct: CD8 leader (N); Flag tag (N); expressed in transfected cells; host or cells: mouse pro-B Ba/F3 cells, stably transfected with pME18Sneo-hCXCR3 (N-delta 4); membrane preparation
T1 sequence (P49682 5-368 limits assumed): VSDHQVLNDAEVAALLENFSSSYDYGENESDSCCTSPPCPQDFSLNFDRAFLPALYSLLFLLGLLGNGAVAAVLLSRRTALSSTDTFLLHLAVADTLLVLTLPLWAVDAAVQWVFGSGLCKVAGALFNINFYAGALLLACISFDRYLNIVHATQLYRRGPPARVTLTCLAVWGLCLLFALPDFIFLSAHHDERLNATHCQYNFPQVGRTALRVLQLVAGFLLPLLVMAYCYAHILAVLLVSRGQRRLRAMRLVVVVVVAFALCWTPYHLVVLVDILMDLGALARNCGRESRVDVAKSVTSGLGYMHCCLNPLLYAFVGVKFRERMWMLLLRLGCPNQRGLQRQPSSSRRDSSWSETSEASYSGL
Briefly: Human CXCR3 (N-delta 4) Scintillation Proximity Assay (SPA), [125I] IP-10 binding. As to conditions: IC50 rating; Ba/F3-hCXCR3 (N-delta 4) membranes, 25 pM [125I] IP-10; read-out: IC50. The text has this: The inventive compounds can readily be evaluated to determine activity at The CXCR3 receptors by known methods, such as, for example, Development of Human CXCR3 (N-delta 4) Binding Assay.
Cloning and Expression of Human CXCR3 (N-delta 4):
The DNA encoding human CXCR3 was cloned by PCR using human genomic DNA (Promega, Madison, Wis.) as a template. The PCR primers were designed based on the published sequence of human orphan receptor GPR9 (1) with incorporated restriction sites, a Kozak consensus sequence, CD8 leader and Flag tag. The PCR product was subcloned into the mammalian expression vector pME18Sneo, a derivative of the SR-alpha expression vector (designated as pME18Sneo-hCXCR3 (N-delta 4).
IL-3-dependent mouse pro-B cells Ba/F3 were transfected by electroporation in 0.4 ml Dulbecco's PBS containing 4×10^6 cells with 20 μg of pME18Sneo-hCXCR3 (N-delta 4) plasmid DNA. Cells were pulsed at 400 Volts, 100 OHMs, 960 μFd. The transfected cells were under selection with 1 mg/ml G418 (Life Technologies, Gaithersburg, Md.). G418-resistant Ba/F3 clones were screened for CXCR3 expression by specific binding of [^125I] IP-10 (NEN Life Science Products, Boston, Mass.).
Preparation of Ba/F3-hCXCR3 (N-delta 4) Membranes:
Ba/F3 cells expressing human CXCR3 (N-delta 4) were pelleted and resuspended in the lysis buffer containing 10 mM HEPES, pH 7.5 and Complete® protease inhibitors (1 tablet per 100 ml) (Boehringer Mannheim, Indianapolis, Ind.) at a cell density of 20×10^6 cells per ml. After 5 minutes incubation on ice, cells were transferred to 4639 cell disruption bomb (Parr Instrument, Moline, Ill.) and applied with 1,500 psi of nitrogen for 30 minutes on ice. Large cellular debris was removed by centrifugation at 1,000×g. Cell membrane in the supernatant was sedimented at 100,000×g. The membrane was resuspended in the lysis buffer supplemented with 10% sucrose and stored at −80° C. Total protein concentration of the membrane was determined by BCA method from Pierce (Rockford, Ill.).
Human CXCR3 (N-delta 4) Scintillation Proximity Assay (SPA):
For each assay point, 2 μg of membrane was preincubated for 1 hr with 300 μg wheat germ agglutinin (WGA) coated SPA beads (Amersham, Arlington Heights, Ill.) in the binding buffer (50 mM HEPES, 1 mM CaCl2, 5 mM MgCl2, 125 mM NaCl, 0.002% NaN3, 1.0% BSA) at room temperature. The beads were spun down, washed once, resuspended in the binding buffer and transferred to a 96-well Isoplate (Wallac, Gaithersburg, Md.). 25 pM of [^125I] IP-10 with tested compounds in a series of titration were added to start the reaction. After 3 hr reaction at room temperature, the amount of [^125I] IP-10 bound to the SPA beads was determined with a Wallac 1450 Microbeta counter.
The Ki values for the various example compounds of the present invention are given in the afore-mentioned Table 1. From these values, it would be apparent to the skilled artisan that the compounds of the invention have excellent utility CXCR3 antagonists.
For orientation: SPA uses beads or plates that emit light when radiolabelled molecules are held near them.
One may read the IC50 as the concentration needed to halve the response being measured. With `CC[C@H]1CN(c2nc(O)c(-c3nnc(C)o3)nc2Cl)CCN1C1CCN(C(=O)c2ccc(Cl)cc2)CC1` [Compound 89], the IC50 is more than 0.1 µM. On to `CC[C@H]1CN(c2nc(NC(C)=O)c(-c3nnc(C)o3)nc2Cl)CCN1C1CCN(Cc2ccc(Cl)cc2)CC1` [Compound 90], for which the IC50 is more than 0.1 µM. For the compound `CCOC(=O)c1nnc(-c2nc(Cl)c(N3CCN(C4CCN(C(=O)c5ccc(Cl)cc5)CC4)[C@@H](CC)C3)nc2N)o1` [Compound 91], the concentration for half-maximal inhibition (IC50) was more than 0.1 µM. With `CC[C@H]1CN(c2nc(N)c(-c3nnc(C)o3)nc2Cl)CCN1C1CCN(C(=O)c2ccc(Cl)cc2NS(C)(=O)=O)CC1` [Compound 92], the IC50 is more than 0.1 µM. The result for `CCNc1nnc(-c2nc(Cl)c(N3C[C@H](CC)N(C4CCN(C(=O)c5ccc(Cl)nc5N)CC4)C[C@H]3C)nc2N)o1` [Compound 93] reads less than 0.025 µM; that for `CC[C@H]1CN(c2nc(N)c(-c3nnc(C)o3)nc2Cl)CCN1C1CCN(Cc2cnc(N)nc2)CC1` [Compound 95], more than 0.1 µM.

Turning to `CCNc1nnc(-c2cnc(N3C[C@H](CC)N(C4CCN(C(=O)c5ccc(Cl)cc5)CC4)C[C@H]3C)c(C)n2)o1` [Compound 96], the IC50 was less than 0.025 µM. Take `CCNc1nnc(-c2cnc(N3C[C@H](CC)N(C4CCN(C(=O)c5ccc(Cl)nc5N)CC4)C[C@H]3C)c(C)n2)o1` [Compound 97]: the IC50 was less than 0.025 µM. The result for `CCNc1nnc(-c2cnc(N3C[C@H](CC)N(C4CCN(C(=O)c5ccc(Cl)nc5N)CC4)C[C@H]3C)c(C(F)(F)F)n2)o1` [Compound 98] reads less than 0.025 µM; that for `CCNc1nnc(-c2cnc(N3C[C@H](CC)N(C4CCN(C(=O)c5ccc(Cl)nc5N)CC4)C[C@H]3C)c(Cl)n2)o1` [Compound 100], less than 0.025 µM. Turning to `CCNc1nnc(-c2cnc(N3C[C@H](CC)N(C4CCN(C(=O)c5ccc(Cl)cc5)CC4)C[C@H]3C)c(Cl)n2)o1` [Compound 101], the IC50 is less than 0.025 µM. As for `CC[C@H]1CN(c2ncc(-c3nnc(N)o3)nc2C)[C@H](C)CN1C1CCN(C(=O)c2ccc(Cl)cc2)CC1` [Compound 102], the figure is less than 0.025 µM; as for `CCNc1nnc(-c2cnc(N3CCN(C4CCN(C(=O)c5ccc(Cl)nc5N)CC4)[C@@H](CC)C3)c(C(F)(F)F)n2)o1` [Compound 103], less than 0.025 µM. For the compound `CC[C@H]1CN(c2ncc(-c3ncc[nH]3)nc2C)CCN1C1CCN(Cc2ccc(F)cc2)CC1` [Compound 104], the concentration for half-maximal inhibition (IC50) was less than 0.025 µM.

On to `CC[C@H]1CN(c2ncc(-c3nnc[nH]3)nc2C)CCN1C1CCN(Cc2ccc(F)cc2)CC1` [Compound 105], for which the IC50 was less than 0.025 µM. For the compound `CC[C@H]1CN(c2ncc(-c3nc[nH]n3)nc2C)[C@H](C)CN1C1CCN(Cc2ccc(F)cc2)CC1` [Compound 106], the IC50 was less than 0.025 µM.

`CC[C@H]1CN(c2ncc(-c3ncc[nH]3)nc2C)CCN1C1CCN(Cc2ccc(Cl)cc2)CC1` [Compound 107]: the IC50 is less than 0.025 µM. The result for `CC[C@H]1CN(c2ncc(-c3ncc[nH]3)nc2C)CCN1C1CCN(Cc2ccc(F)c(F)c2)CC1` [Compound 108] reads less than 0.025 µM; that for `CC[C@H]1CN(c2ncc(-c3nnc[nH]3)nc2C)CCN1C1CCN(Cc2ccc(F)c(F)c2)CC1` [Compound 109], less than 0.025 µM.

`CC[C@H]1CN(c2ncc(-c3nc[nH]n3)nc2C)CCN1C1CCN(C(=O)c2ccc(C)c(F)c2)CC1` [Compound 110]: the IC50 was less than 0.025 µM. Turning to `CC[C@H]1CN(c2ncc(-c3ncc[nH]3)nc2C)CCN1C1CCN(C(=O)c2ccc(Cl)cc2)CC1` [Compound 111], the IC50 is less than 0.025 µM. For `CC[C@H]1CN(c2ncc(-c3nc[nH]n3)nc2C)[C@H](C)CN1C1CCN(Cc2ccc(Cl)cc2)CC1` [Compound 112], the IC50 was less than 0.025 µM.

For `CC[C@H]1CN(c2ncc(-c3nc[nH]n3)nc2C)CCN1C1CCN(C(=O)c2ccc(F)c(F)c2)CC1` [Compound 113], the IC50 is less than 0.025 µM. As for `CC[C@H]1CN(c2ncc(C3=NNCN3)nc2C)[C@H](C)CN1C1CCN(Cc2ccc(F)c(F)c2)CC1` [Compound 114], the figure is less than 0.025 µM; as for `CCNc1nnc(-c2cnc(N3CCN(C4CCN(Cc5ccc(C)cc5)CC4)[C@@H](CC)C3)c(C)n2)o1` [Compound 115], less than 0.025 µM. As to `CC[C@H]1CN(c2ncc(C3=NCCN3)nc2C)[C@H](C)CN1C1CCN(C(=O)c2ccc(Cl)cc2)CC1` [Compound 116], the IC50 was less than 0.025 µM. On to `CCNc1nnc(-c2cnc(N3CCN(C4CCN(Cc5ccc(F)cc5)CC4)[C@@H](CC)C3)c(C)n2)o1` [Compound 117], for which the IC50 was less than 0.025 µM. On to `CC[C@H]1CN(c2ncc(-c3nnc[nH]3)nc2C)[C@H](C)CN1C1CCN(C(=O)c2ccc(Cl)cc2)CC1` [Compound 118], for which the IC50 fell in the range of 0.025 to 0.1 µM. Regarding `CC[C@H]1CN(c2ncc(-c3ncc[nH]3)nc2C)CCN1C1CCN(C(=O)c2ccc(Cl)nc2N)CC1` [Compound 119], the IC50 is less than 0.025 µM.

Take `CC[C@H]1CN(c2ncc(-c3nnc(N)[nH]3)nc2C)CCN1C1CCN(C(=O)c2ccc(Cl)cc2)CC1` [Compound 120]: the IC50 was less than 0.025 µM.

For the compound `CC[C@H]1CN(c2ncc(-c3nc[nH]n3)nc2C)[C@H](C)CN1C1CCN(C(=O)c2ccc(F)c(F)c2)CC1` [Compound 122], the IC50 lay within 0.025 to 0.1 µM.

In the case of `CC[C@H]1CN(c2ncc(-c3nnc(N)o3)nc2C)[C@H](C)CN1C1CCN(Cc2ccc(Cl)cc2)CC1` [Compound 123], the IC50 was less than 0.025 µM. The result for `CC[C@H]1CN(c2ncc(-c3ncc[nH]3)nc2C)CCN1C1CCN(C(=O)c2ccc(Cl)c(F)c2)CC1` [Compound 124] reads less than 0.025 µM; that for `CC[C@H]1CN(c2ncc(-c3nc[nH]n3)nc2C)CCN1C1CCN(C(=O)c2ccc(Cl)c(F)c2)CC1` [Compound 125], less than 0.025 µM; that for `CCNc1nnc(-c2cnc(N3CCN(C4CCN(C(=O)c5ccc(C)cc5)CC4)[C@@H](CC)C3)c(C)n2)o1` [Compound 126], less than 0.025 µM. As for `CCNc1nnc(-c2cnc(N3CCN(C4CCN(Cc5ccc(C)c(F)c5)CC4)[C@@H](CC)C3)c(C)n2)o1` [Compound 127], the figure is less than 0.025 µM. As for `CCNc1nnc(-c2cnc(N3C[C@H](CC)N(C4CCN(Cc5ccc(F)cc5)CC4)C[C@H]3C)c(C)n2)o1` [Compound 128], the figure is less than 0.025 µM; as for `CCc1nnc(-c2cnc(N3CCN(C4CCN(C(=O)c5ccc(Cl)cc5)CC4)[C@@H](CC)C3)c(C)n2)[nH]1` [Compound 129], less than 0.025 µM; as for `CC[C@H]1CN(c2ncc(-c3ncc[nH]3)nc2C)[C@H](C)CN1C1CCN(C(=O)c2ccc(Cl)nc2N)CC1` [Compound 130], less than 0.025 µM.

`CC[C@H]1CN(c2ncc(-c3nc[nH]n3)nc2C)[C@H](C)CN1C1CCN(C(=O)c2ccc(Cl)nc2N)CC1` [Compound 131]: the IC50 is less than 0.025 µM. As for `CCNc1nnc(-c2cnc(N3CCN(C4CCN(Cc5ccc(Cl)cc5)CC4)[C@@H](CC)C3)c(C)n2)o1` [Compound 132], the figure is less than 0.025 µM; as for `CC[C@H]1CN(c2ncc(-c3nc[nH]n3)nc2C)[C@H](C)CN1C1CCN(C(CO)c2ccc(Cl)cc2)CC1` (some centres unmarked) [Compound 133], less than 0.025 µM; as for `CC[C@H]1CN(c2ncc(-c3nc[nH]n3)nc2C)[C@H](C)CN1C1CCN(C(=O)c2ccc(Cl)c(F)c2)CC1` [Compound 134], less than 0.025 µM. As for `CC[C@H]1CN(c2ncc(-c3ncc[nH]3)nc2C)CCN1C1CCN(Cc2ccc(OC(F)(F)F)cc2)CC1` [Compound 135], the figure is less than 0.025 µM.
